Test results reported in US4432906A, “Inhibitors of SRS-synthesis” (Hoffmann-La Roche Inc., priority 1981, dated 1984).

Test system: SRS-A synthesis in rat peritoneal cells
Assay: Inhibition of the in vitro synthesis of SRS-A in rat peritoneal cells (ionophore A23187 challenge; SRS-A quantitated by guinea pig ileum bioassay)
Assay type: cell-based, rat (male Sprague-Dawley)
Conditions: for IC50: concentration of test drug which inhibits the synthesis of SRS-A by 50%, from plot of mean percent inhibition versus drug concentration; for inhibition at 10 µM: inhibition of SRS-A synthesis, 10 μM test drug, 10 min preincubation at 37° C., challenge with 5×10^-7 M ionophore A23187, mean percent inhibition
Text: Inhibition of the In Vitro Synthesis of SRS-A in Rat Peritoneal Cells
To study the effect of drugs on SRS-A synthesis in rat peritoneal cells, these cells (including mast cells, monocytes, eosinophils and neutrophils)were isolated from male Sprague-Dawley rats (Charles River Laboratories) weighing 180-220 g by the lavage procedure described by Herzig, D. G. and Dusner, E. J. Journal of Pharmacology and Experimental Therapeutics, 194, 457-460 (1975) with the exception that Hanks balanced salt solution used in these experiments was adjusted to pH 6.9 with 5% (V/V) of 0.1 M aqueous phosphate buffer and contained 50 mg/ml sodium heparin. After removal from the peritoneal cavity of rats, the cells were subsequently isolated by centrifugation at 400×gravity for 10 minutes at 4° C. and resuspended to a concentration of about 2,000,000 cells per ml in Hanks buffer.
Samples for evaluation were prepared by adding various concentrations of test drugs to 2 ml aliquots of resuspended cells in Hanks buffer. The 2 ml samples used for control contained 2 ml aliquots of resuspended cells in Hanks buffer without drugs. All of the above samples (2 ml final volume) were preincubated at 37° C. for 10 minutes in the presence of varying concentrations of test drug prior to challenge with 5×10^-7 M ionophore A23187. This ionophore is disclosed in Burka and Flower, Br. J. Pharmacology 65: 35-41 (1979). Antibiotic A 23187 was used as a probe for the study of calcium and function in biological systems. After ionophore challenge, SRS-A was synthesized in the samples by the cells for 10 minutes (at 37° C.) after which this synthesis was terminated by placing the samples in a boiling water bath for 10 minutes followed by centrifugation at 2,000×g (10 minutes) at 4° C. to remove coagulated protein and cellular debris. The SRS-A present in the resulting supernatants was quantitated by a bioassay using a guinea pig ileum as described in Orange, and Austen, Adv. Immunol, 10:105-144 (1969). For this bioassay, a 1.5 cm segment of ileum was removed from animals weighing 300 to 400 g and resuspended in an organ bath containing 10 ml of Tyrodes solution with 10^-6 M atropine sulfate and 10^-6 M pyrilamine maleate. The bath was maintained at 37° C. and aerated with a mixture of 95% O2 and 5% CO2. The concentration of SRS-A in the experimental samples was determined by a comparison of isotonic contraction responses elicited by the samples with those obtained with varying amounts of an SRS-A standard procedures of Orange, R. R. and Austen, K. F. Adv. Immunol. 10:105-144 (1969) against histamine (1 unit of SRS-A being that amount which gives a contractile response similar to that of […]). […]
The mean percent inhibition [formula] at each concentration of the various test drugs was calculated. […]

IC50	SMILES	inhibition at 10 µM
< 10000 nM	CCCCCCCC/C=C\C(C)(C)/C=C\C/C=C\CCCC(=O)O [(all Z)-10,10-dimethyl-5,8,11-eicosatrienoic acid]	100%
1000 to 3000 nM	CCCCC/C=C\C/C=C\C(C)(C)/C=C\C/C=C\CCCC(=O)O [(all Z)-10,10-dimethyleicosa-5,8,11,14-tetraenoic acid]	99 ± 1%
